Reference: US8153689B2, “Pleuromutilin derivatives for the treatment of diseases mediated by microbes” (Nabriva Therapeutics AG, priority 2007, dated 2012)

Tested on: primary human hepatocytes
Experiment: Metabolic stability in cryopreserved primary human hepatocytes
Format: in vitro ADME
Settings: 4 h incubation with human hepatocytes, compound concentration 5 μg/mL, 37° C., LC/MS
Procedure: The metabolic stability for compounds of the present invention was determined by using cryopreserved primary human hepatocytes. 1×10^6 cells/mL were incubated in the absence and the presence of 5 and 25 μg/mL of the test compounds at 37° C., 5% CO2 for 4 hours. To evaluate the in vitro degradation under assay conditions, a sample of each test compound was incubated also in the absence of hepatocytes. The incubation was stopped by freezing the reaction mixture. After ultrafiltration and washing of the filter with acetonitrile, the sample solution was analyzed for parent compound disappearance or metabolite appearance using LC/MS (ion trap). The metabolic stability value corresponds to the detected parent compound in % after incubation.

Molecule | metabolic stability value: detected parent compound in % after incubation
14-O-{[(1R, 3R)-3-Amino-cyclohexylsulfanyl]-acetyl}-mutilin hydrochloride and the (1S, 3S)diastereomer hydrochloride thereof | 24%
C=CC1(C)CC(OC(=O)CSC2CC(N)CCC2O)C2(C)C(C)CCC3(CCC(=O)C32)C(C)C1O.Cl (mixture of isomers) [Example 2, 14-O-{[(1R, 2R, 5S)-5-Amino-2-hydroxy-cyclohexylsulfanyl]-acetyl}-mutilin hydrochloride+(1S, 2S, 5R)diastereomer hydrochloride] | 66%
